Columns and labels:
OX40 = molecular target: T1, OX40 (Homo sapiens, UniProt P43489); test: Promega OX40 cell-activity assay in co-culture with tumor cells (Nectin-4 positive 4T1-D02); format: cell-based; details: co-culture with Nectin-4 positive 4T1-D02 cells; compared to OX40L and non-binding control BCY12968
T1 construct: host or cells: OX40 Jurkat cells (NF-kB luciferase reporter)
T1 sequence (P43489 29-277): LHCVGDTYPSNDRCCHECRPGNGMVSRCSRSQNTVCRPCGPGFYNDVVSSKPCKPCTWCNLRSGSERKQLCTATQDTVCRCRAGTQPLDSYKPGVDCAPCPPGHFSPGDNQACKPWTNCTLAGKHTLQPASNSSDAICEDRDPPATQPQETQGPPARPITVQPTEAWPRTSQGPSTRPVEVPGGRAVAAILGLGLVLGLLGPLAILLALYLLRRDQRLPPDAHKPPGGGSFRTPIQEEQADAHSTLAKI
Description: Promega have developed an OX40 cell-activity assay that uses NF-κB luciferase luminescence as a read-out of OX40 activation in Jurkat cells (Promega CS197704). On the day of the experiment, prepare medium by thawing FBS and adding 5% FBS to RPMI-1640. Thaw OX40 Jurkat cells in the water-bath and then add 500 μl cells to 11.5 ml pre-warmed 5 FBS RPMI-1640 medium. Add 55 μl cells/well to white cell culture plates. Harvest tumor cells from culture. 4T1 is a Nectin-4 negative murine mammary gland epithelial cancer cell and it was genetically modified to express murine Nectin-4 on the cell surface (4T1 Nectin-4 positive; clone 4T1-D02). Tumor cells were cultured to 80% confluency in vitro in RPMI1640 medium supplemented with 10% heat-inactivated FBS, 1× Penicillin/Streptomycin, 1×L-Glutamine, 20 mM HEPES and 1×NEAA (RPMI working medium). Tumor cells were trypsinized and washed two times at 1500 rpm for 5 minutes in RPMI1640 working medium prewarmed to 37° C. Count cells and resuspend at 2,000,000 cells/mL in R5 media (for 10,000 cells/well). Add 5 μL of tumour cells per well.
Proceed to dilute agonists at concentration giving the maximum fold induction and then titrate down the amount in a sterile 96 well-plate. Prepare enough reagent for duplicate samples and then perform ⅓ dilution series or 1/10 dilution series. Include positive control OX40L trimer (AcroBiosystems, R&D systems) and negative control monomeric or non-binding peptides. Add 20 μl of agonist as duplicate samples or 5% FBS RPMI-1640 alone as background control.
Co-incubate cells together with agonists for 6 hours at 37° C., 5% CO2. After 6 hours, thaw Bio-Glo™ and develop the assay at room-temperature. Add 80 μl Bio-Glo™ per well and incubate 5-10 min. Read luciferase signal on CLAIROStar plate-reader using the MARS program and normalize the fold induction relative to background (medium alone). Analyse data by transforming the data to x=log (X), then plot log (agonist) vs. response variable slope (4 parameters) to calculate EC50 values.

human PBMCs = test: Human PBMC - tumor cell co-culture assay (IL-2 by HTRF); format: cell-based; details: anti-CD3 and anti-CD28 stimulation, 48 hours
Description: 4T1, a Nectin-4 negative murine mammary gland epithelial cancer cell (4T1 Nectin-4 −ve; 4T1-Parental) and its genetically modified version expressing murine Nectin-4 on the cell surface (4T1 Nectin-4 +ve; clone 4T1-D02) were cultured to 80% confluency in vitro in RPMI1640 medium supplemented with 10% heat-inactivated FBS, 1× Penicillin/Streptomycin, 1× L-Glutamine, 20 mM HEPES and 1×NEAA (RPMI working medium). Tumor cells were trypsinized and washed two times at 1500 rpm for 5 minutes in RPMI1640 working medium prewarmed to 37° C. Four thousand tumor cells in 25 μl were plated per well in a sterile 384 well cell culture plate. Frozen human PBMCs were thawed and washed one time at 1250 rpm for 5 minutes in prewarmed RPMI1640 working medium. 20000 viable PBMCs in 50 μl RPMI1640 working medium supplemented with 250 ng/ml (2× concentration) of human anti-CD3 (clone OKT3) and 500 ng/ml (2× concentration) of human anti-CD28 (clone CD28.2) were added per respective wells containing tumor cells in 25 μl medium to obtain a […] ratio for tumor cells and PBMCs. Test compounds in DMSO were diluted in RPMI1640 working medium. An equivalent amount of DMSO was added to assay controls. […] Culture supernatant was collected at 48 hours post-treatment, and IL-2 concentrations were measured using HTRF assays (CIS Bio). Data were analyzed using GraphPad Prism.

SMILES | OX40 agonism in co-culture (OX40) | IL-2 levels (human PBMCs; 4T1 cells without Nectin-4 expression) | production of the cytokine IL-2 by human PBMCs (human PBMCs; Nectin-4 expressing 4T1 cells)
CSCC[C@@H]1NC(=O)[C@@H]2CSCCC(=O)N3CN(CN(C3)C(=O)CCSC[C@H](NC(=O)CCOCCOCCOCCOCCOCCOCCOCCOCCOCCOCCOCCOCCn3cc(CCC(=O)NCCCC[C@H](NC(=O)[C@H](C)NC(=O)[C@@H]4CSCCC(=O)N5CN6CN(C5)C(=O)CCSC[C@H](NC(=O)[C@@H]5CCCN5C(=O)[C@H](CO)NC(=O)[C@H](Cc5ccc(O)cc5)NC(=O)[C@H](CC(C)C)NC(=O)[C@@H](NC(=O)[C@H](C)N)CSCCC6=O)C(=O)N[C@@H](Cc5c[nH]c6ccccc56)C(=O)N[C@@H](Cc5c[nH]cn5)C(=O)N5CCC[C@H]5C(=O)N[C@@H](CC(C)C)C(=O)N[C@@H](CC(N)=O)C(=O)N[C@@H](CC(=O)O)C(=O)N4)C(N)=O)nn3)C(=O)N3CCC[C@H]3C(=O)N[C@@H](Cc3cccc4ccccc34)C(=O)N[C@H](CC(=O)O)C(=O)N2)C(=O)CCSC[C@@H](C(N)=O)NC(=O)[C@H](Cc2c[nH]c3ccccc23)NC(=O)[C@@H]2C[C@@H](O)CN2C(=O)[C@@H]2CCCN2C(=O)[C@H]([C@@H](C)O)NC(=O)[C@H](CO)NC(=O)[C@H](Cc2c[nH]c3ccccc23)NC(=O)[C@H](CC(=O)O)NC(=O)[C@H](CCCCNC(=N)N)NC1=O [BCY12141] | potent OX40 agonism | comparable to the control baseline CD3+CD28 stimulation | induced the production of the cytokine IL-2
CSCC[C@@H]1NC(=O)[C@@H]2CSCCC(=O)N3CN(CN(C3)C(=O)CCSC[C@H](NC(=O)CCOCCOCCOCCOCCOCCn3cc(CCC(=O)NCCCC[C@H](NC(=O)[C@H](C)NC(=O)[C@@H]4CSCCC(=O)N5CN6CN(C5)C(=O)CCSC[C@H](NC(=O)[C@@H]5CCCN5C(=O)[C@H](CO)NC(=O)[C@H](Cc5ccc(O)cc5)NC(=O)[C@H](CC(C)C)NC(=O)[C@@H](NC(=O)[C@H](C)NC(C)=O)CSCCC6=O)C(=O)N[C@@H](Cc5c[nH]c6ccccc56)C(=O)N[C@@H](Cc5c[nH]cn5)C(=O)N5CCC[C@H]5C(=O)N[C@@H](CC(C)C)C(=O)N[C@@H](CC(N)=O)C(=O)N[C@@H](CC(=O)O)C(=O)N4)C(N)=O)nn3)C(=O)N3CCC[C@H]3C(=O)N[C@@H](Cc3cccc4ccccc34)C(=O)N[C@H](CC(=O)O)C(=O)N2)C(=O)CCSC[C@@H](C(N)=O)NC(=O)[C@H](Cc2c[nH]c3ccccc23)NC(=O)[C@@H]2C[C@@H](O)CN2C(=O)[C@@H]2CCCN2C(=O)[C@H]([C@@H](C)O)NC(=O)[C@H](CO)NC(=O)[C@H](Cc2c[nH]c3ccccc23)NC(=O)[C@H](CC(=O)O)NC(=O)[C@H](CCCCNC(=N)N)NC1=O [BCY12721] | potent OX40 agonism | – | –
CSCC[C@@H]1NC(=O)[C@@H]2CSCCC(=O)N3CN(CN(C3)C(=O)CCSC[C@H](NC(=O)CCOCCOCCOCCN(CCOCCOCCOCCn3cc(CCC(=O)NCCCC[C@H](NC(=O)[C@H](C)NC(=O)[C@@H]4CSCCC(=O)N5CN6CN(C5)C(=O)CCSC[C@H](NC(=O)[C@@H]5CCCN5C(=O)[C@H](CO)NC(=O)[C@H](Cc5ccc(O)cc5)NC(=O)[C@H](CC(C)C)NC(=O)[C@@H](NC(=O)[C@H](C)N)CSCCC6=O)C(=O)N[C@@H](Cc5c[nH]c6ccccc56)C(=O)N[C@@H](Cc5c[nH]cn5)C(=O)N5CCC[C@H]5C(=O)N[C@@H](CC(C)C)C(=O)N[C@@H](CC(N)=O)C(=O)N[C@@H](CC(=O)O)C(=O)N4)C(N)=O)nn3)CCOCCOCCOCCn3cc(CCC(=O)NCCCC[C@H](NC(=O)[C@H](C)NC(=O)[C@@H]4CSCCC(=O)N5CN6CN(C5)C(=O)CCSC[C@H](NC(=O)[C@@H]5CCCN5C(=O)[C@H](CO)NC(=O)[C@H](Cc5ccc(O)cc5)NC(=O)[C@H](CC(C)C)NC(=O)[C@@H](NC(=O)[C@H](C)N)CSCCC6=O)C(=O)N[C@@H](Cc5c[nH]c6ccccc56)C(=O)N[C@@H](Cc5c[nH]cn5)C(=O)N5CCC[C@H]5C(=O)N[C@@H](CC(C)C)C(=O)N[C@@H](CC(N)=O)C(=O)N[C@@H](CC(=O)O)C(=O)N4)C(N)=O)nn3)C(=O)N3CCC[C@H]3C(=O)N[C@@H](Cc3cccc4ccccc34)C(=O)N[C@H](CC(=O)O)C(=O)N2)C(=O)CCSC[C@@H](C(N)=O)NC(=O)[C@H](Cc2c[nH]c3ccccc23)NC(=O)[C@@H]2C[C@@H](O)CN2C(=O)[C@@H]2CCCN2C(=O)[C@H]([C@@H](C)O)NC(=O)[C@H](CO)NC(=O)[C@H](Cc2c[nH]c3ccccc23)NC(=O)[C@H](CC(=O)O)NC(=O)[C@H](CCCCNC(=N)N)NC1=O [BCY12967] | potent OX40 agonism | – | –

— patent US11613560B2, “Bicyclic peptide ligands specific for OX40” (BicycleTx Limited, priority 2019, dated 2023)
